Measurements reported in patent US6635629B2, “3-nitrogen-6,7-dioxygen steroids and uses related thereto” (Inflazyme Pharmaceuticals Ltd., priority 2000, dated 2003).
In brackets after ≈: the same amount, converted by molar mass. Several values for one entry are separate records, joined by “and”; a condition that tells them apart may be missing. Equal entries are not always repeated.

Assays:
[1] = test system: sensitized Brown Norway rats; experiment: Ovalbumin-induced accumulation of inflammatory cells in lung lavage fluid of sensitized Brown Norway rats; type: in vivo, rat; settings: p.o.
Experimental: The ability of a compound to inhibit the allergen-induced accumulation of inflammatory cells such as eosinophils and neutrophils in the lavage fluid obtained from sensitized animals is indicative of that compound's anti-asthma activity. […] The test is conducted as follows.
Male Brown Norway rats are sensitized to ovalbumin by single intraperitoneal injection of 1 mg ovalbumin adsorbed to 100 mg A(OH)3 (alum) in 1 ml sterile saline (saline control rats receive only sterile saline) on day 1, and allowed to sensitize until day 21. […] Rats are challenged with 0.5% ovalbumin in saline generated using a Devillbis nebulizer for 60 min on day 21.
Forty-eight hrs after challenge, animals are sacrificed with an overdose of intraperitoneally-delivered sodium pentobarbitol and the lungs are lavaged with cold 2×7 ml phosphate buffered saline. The recovered lavage fluid is placed on ice. The bronchoalveolar lavage fluid is centrifuged and the supernatant removed. The pellet is resuspended in phosphate buffered saline at 4° C. Cytospins are prepared and stained for differentiation and enumeration of cell types.
Test compound was administered in 300 μl corn oil (Tables 7 and 8) or water (Table 9), which were used as vehicles. Control animals received 300 μl corn oil or water alone, i.e., no drug. […] A negative value in Table 7, 8, or 9 indicates an exacerbation of the effect over the control animal.

[2] = Pharmacokinetics in the rat; type: in vivo; settings: plasma; for bioavailability: po
[3] = Pharmacokinetics in the monkey; type: in vivo; settings: plasma; for bioavailability: po
physchem = settings: water
[4] = test system: rat mast cell line (RBL-2H3); experiment: Antigen-induced release of hexosaminidase from a rat mast cell line (RBL-2H3); type: cell-based; settings: inhibition of DNP-HSA antigen-induced hexosaminidase release; tested at 0.3, 3, 10 and 30 μM; read-out: Hex IC50
Experimental: The anti-allergic effects of a compound of the present invention was evaluated by measuring its effect on antigen-induced secretion of hexosaminidase from a passively sensitized rat mast cell line. The ability of a test compound to inhibit the release of mast cell granule contents, e.g., histamine and hexosaminidase, is indicative of the anti-allergy and/or anti-asthma activity of the compound. Hexosaminidase is released from the mast cell granule along with histamine and other mediators during antigen challenge. The test is performed as follows.
RBL-2H3 cells are grown in culture and passively sensitized for 1 hour at 37° C. to dinitrophenol (DNP) using anti-human-DNP (IgE). Cells are incubated with test compound for 30 minutes at 37° C. and stimulated with 0.5 μg/ml DNP-HSA (antigen) for 30 minutes. Aliquots of the supernatant are removed and used to measure the amount of hexosaminidase released during challenge with the antigen. […] The effect of each test compound is determined as a percentage of the antigen-induced response (minus background release) obtained in the presence of DMSO alone. These values are used to determine the degrees of inhibition of antigen-induced hexosaminidase release from the cells.

Jurkat clone E6.1 cells = experiment: Antigen-induced (anti-CD3 mAb) calcium flux in Jurkat clone E6.1 cells; type: cell-based; settings: 20 μM; anti-CD3 mAb 4 μg/mL; Fura 2AM
Excerpt: Elevation of cytoplasmic calcium concentration is a common and crucial event which follows the activation of many types of cell surface receptors. Increases in intracellular calcium that occur following agonist activation of inositol lipid hydrolysis are the results of calcium release from the endoplasmic reticulum and the influx of calcium through the plasma membrane. Increases in cytosolic calcium concentration are involved in many important cellular responses in the inflammatory process including adhesion, motility, gene expression, proliferation, and degranulation. Changes in intracellular calcium centrations can affect both short and long term cellular responses. An assay method to evaluate a test compound's impact on calcium flux is provided as follows.
The resulting supernatants are discarded and each pellet is washed in 10 mL HBSS. Cell suspensions are accumulated and centrifuged for 5 minutes at 900 RPM to form a cell pellet. The resulting supernatant is discarded and the pellet is resuspended in HBSS at 1×10^7 cells/mL. The cell suspension is transferred to a 20 mm petri dish and incubated at 37° C., 5% CO2 for 20 minutes.
One volume of Fura 2AM is mixed to one volume of detergent Pluronic F127. Cells are labeled with 4 μL of probe solution to each mL of cell suspension. The petri dish is wrapped in aluminum foil to protect from light and placed on a plate shaker for 30 minutes at room temperature.
The following steps are done in the laminar flow hood with the fluorescent lights turned off. The petri dish is removed from the shaker and the labeled cell suspension is transferred to a 15 mL conical tube and washed twice with HBSS as above. The cell pellet is resuspended in 12 mL HBSS and left wrapped in foil for 30 minutes at room temperature. The labeled cell suspension is aliquoted (100 μL/well) into a Dynex 96 well white opaque tissue culture plate. […] Selected compounds were tested for dose related activity. Test samples and activator (anti—CD3 mAb at final concentration of 4 μg/mL, PharMingen) are added manually (50 μL), such that the minimum time to acquire the first data point after stimulation is approximately 30 seconds. The calcium influx response to anti-CD3 mAb is measured as an “end point” assay. The entire plate is read in 100 seconds using a kinetic of 1 second per well.
The plate is read before the addition of anti-CD3 to monitor non-specific effect of samples/drugs. Fluorescence emission is measured at 510 nm with excitation alternating between 340 and 380 every second using an excitation/emission filter pair. Data from these dual wavelengths are represented as a ratio of 2 excitations wavelengths. This ratio is independent of intracellular dye and cell concentrations, enabling real comparison between experiments.

[5] = Metabolic stability in human liver S9 fractions; type: in vitro ADME; settings: 10 μM
Excerpt: The therapeutic effectiveness of a test compound can be often directly related to its metabolic stability in vivo. The majority of known, marketed drugs are metabolized by a group of enzymes known as P450 enzymes. The S9 fraction of human liver contains all the P450 enzymes and also cytoplasmic enzymes that may be involved in the metabolism of new chemical entities. Metabolism in vitro using human S9 fractions is a standard assay to evaluate relative metabolic stability of new compounds. The test is performed as follows.
Reagents are thawed on ice and combined to make up a Master Mix as follows: Potassium phosphate (100 mM, pH 7), G6P (0.25 mM), G6PDH (2 U/ml), NADPH (1 mM), UDP (0.25 mM), APPS (0.25 mM), and S9 fraction (2 mg/ml). A volume of 498 μl of the Master mix is dispensed into each microcentrifuge tube. A volume of 2 μl of 2.5 mM test compound (final concentration of 10 μM) is dispensed into the center of the lid of the appropriate tube, and the lids gently closed to prevent mixing. Synchronous combination of test compound and master mix is achieved by simultaneous ten times inversion of the tubes, which are then incubated at 37° C. and shaken at 150 rpm for the appropriate incubation times. While incubation is in progress, all 0 time samples are mixed individually by three times inversion followed by the immediate addition of 500 μl ice cold acetonitrile with three times inversion to stop the reaction. Immediately after each 15 minutes and 30 minutes incubation is complete, ice cold acetonitrile is added to each tube and the tubes mixed by three times inversion. All sample tubes are incubated at −80° C. for a minimum of 15 minutes, thawed and remixed by inversion. Aliquots of 650 μl are transferred to Chromatographic Specialties micro-spin filter system tubes (0.2 μm nylon membrane, C618505) and centrifuged at 13,000 rpm for 48 seconds. The sample filtrates are stored at −80° C.
Sample filtrates are analyzed on LCMS, and percent remaining after 15 and 30 minute incubation is calculated relative to the 0 minute incubation.
The metabolic stability of various compounds are summarized in Table 10 as the percent remaining after 15 or 30 minutes incubation with human liver S9 fractions.

[6] = 0.03 mg/kg, 4 days qd, water vehicle
[7] = 0.1 mg/kg, 4 days qd, water vehicle
[8] = 0.3 mg/kg, 4 days qd, water vehicle
[9] = 1 mg/kg, 4 days qd, water vehicle
[10] = 5 mg/kg/day for 4 days, corn oil vehicle, relative to control animals
[11] = 1 mg/kg/day for 4 days, corn oil vehicle, relative to control animals
[12] = 37° C., 15 min incubation, relative to 0 minute incubation
[13] = 37° C., 30 min incubation, relative to 0 minute incubation

Row | SMILES | % inhibition of eosinophils [1, 7] | % inhibition of lymphocytes [1, 7] | % inhibition of neutrophils [1, 7] | % inhibition of eosinophils [1, 8] | % inhibition of lymphocytes [1, 8] | % inhibition of neutrophils [1, 8] | % inhibition of eosinophils [1, 9] | % inhibition of lymphocytes [1, 9] | % inhibition of neutrophils [1, 9] | % inhibition of eosinophils [1, 10] | % inhibition of lymphocytes [1, 10] | % inhibition of neutrophils [1, 10] | IC50 [4] | Calcium (% inhibition at 20 μM) (Jurkat clone E6.1 cells) | % remaining after 15 min [5, 12] | % remaining after 30 min [5, 13] | other results
1 | C/C=C1/CCC2C3C(CC[C@]12C)[C@@]1(C)CC[C@H](N)CC1[C@@H](O)[C@@H]3O (stereo partly drawn) [Compound 28] | 29% | 50% | −10% | 71% | 85% | 66% | 60% | 70% | 41% | 85% | 124% | 87% | – | – | – | – | % inhibition of eosinophils [1, 6]: 5%; % inhibition of lymphocytes [1, 6]: −5%; % inhibition of neutrophils [1, 6]: −26%; half-life [2]: 7.5 h; bioavailability [2]: ~100%; half-life [3]: 15 h; bioavailability [3]: 25 to 30%; solubility (physchem; solubility at room temperature): ~30 mg/mL (≈ 90 mM)
2 | CC=C1CCC2C3C(CC[C@]12C)[C@@]1(C)CCC(N)CC1[C@@H](O)[C@@H]3O (stereo partly drawn) [Compound 49] | – | – | – | – | – | – | – | – | – | 52% | 73% | 36% | 11 µM | 26.8% | – | – | % remaining after 15 min ([5]; human, s9, 15 min, pH 7): 93 ± 6%; % remaining after 30 min ([5]; human, s9, 30 min, pH 7): 85 ± 8%
3 | C=C1CCC2C3C(CC[C@]12C)[C@@]1(C)CC[C@H](N)CC1[C@@H](O)[C@@H]3O (stereo partly drawn) [Compound 89] | 35% | 2% | 25% | 80% | 70% | 72% | 71% | 6% | 66% | 57% | 64% | 60% | 11.5 µM | 15.0% | – | – | half-life [2]: 7.5 h; bioavailability [2]: ~100%; half-life [3]: 15 h; bioavailability [3]: 25 to 30%; solubility (physchem; solubility at room temperature): ~30 mg/mL (≈ 93.9 mM); solubility (physchem; solubility in water): > 100 mg/mL
4 | CCC1CCC2C3C(CC[C@]12C)[C@@]1(C)CCC(N)CC1[C@@H](O)[C@@H]3O (stereo partly drawn) [Compound 97] | – | – | – | – | – | – | – | – | – | 40% | 56% | 52% | 9.3 µM | 43.0% | – | – | % remaining after 15 min ([5]; human, s9, 15 min, pH 7): 94 ± 10%; % remaining after 30 min ([5]; human, s9, 30 min, pH 7): 89 ± 12%
5 | COc1ccc(CNC2CCC3(C)C(C2)C(O)C(O)C2C4=C(CCC23)C(C)(C)CC4)cc1OC.Cl (stereo not drawn) [Compound 142] | – | – | – | – | – | – | – | – | – | – | – | – | 15.9 µM | 13.8% | 80 ± 11% | 55 ± 2% | % inhibition of eosinophils [1, 11]: −131%; % inhibition of lymphocytes [1, 11]: −42%; % inhibition of neutrophils [1, 11]: −1%
6 | CCC1(C)CCC2=C1CCC1C2C(O)C(O)C2CC(N)CCC21C.Cl (stereo not drawn) [Compound 143] | 28% | −43% | 57% | 29% | −37% | 25% | 48% | −22% | 64% | – | – | – | 8.6 µM | 22.6% | 100% and 100 ± 3% | 100% and 99 ± 10% | –
7 | CCC1(C)CCC2=C1CCC1C2C(O)C(O)C2CC(NCc3ccccc3)CCC21C.Cl (stereo not drawn) [Compound 146] | – | – | – | – | – | – | – | – | – | – | – | – | 9 µM | 41.7% | 82 ± 6% | 63 ± 9% | % inhibition of eosinophils [1, 11]: 8%; % inhibition of lymphocytes [1, 11]: −27%; % inhibition of neutrophils [1, 11]: 24%
